Experiment: Reactivity of linker compounds with glutathione
Conditions: pH=7, RT
Procedure: Relative reactivities of the compounds were evaluated towards the small thiol containing peptide glutathione (pH=7, RT). […] Without wishing to be bound by any particular theory, the inventors speculate that the difference in reactivity and stability of the ortho and meta compounds may be attributed to differences in the 3D structures of each compound. Methyl 3,5-bis(2-chloroacetamido)benzoate (1) is predicted to have a planar conformation. Thus, steric hindrance could slow the backside attack of thiolate at the carbon attached to halogen (through an SN2 mechanism). This might explain the greater reactivity of ortho compounds like methyl 3,4-bis(2-chloroacetamido)benzoate (4). Compound (4) is not planar and might afford a more accessible carbon for backside attack.
The reactivity of the linker compounds of the present invention was tested by reaction with glutathione. The following representative reactions are described. Analogous reactions were performed with amide functionalised linker compounds.
The inventors compared the reactivity of various linker compounds of the invention by determining the percentage remaining of the bis-haloacetamide derivatives 14-17 in the presence of glutathione (2.2 equiv.) in aqueous phosphate buffer (100 mM, pH 7.5).

With `COC(=O)c1ccc(NC(=O)CCl)c(NC(=O)CCl)c1` [Compound 4, methyl 3,4-bis(2-chloroacetamido)benzoate] the “relative reactivity towards glutathione (reaction rate)” value was “react significantly faster than the 3,5-bis-Cl compound (1)”.
